In patent US9999622B2, “Pyrazolothiazole compound and medicine comprising same” (NIPPON SHINYAKU CO., LTD., priority 2014, dated 2018):
Counter-ions that a name gives are not always drawn.

What was measured:
Type in all cases: biochemical
JAK1 = target: T1, JAK1 (Homo sapiens, UniProt P23458); assay: JAK tyrosine kinase inhibitory activity in the presence of 1 mM ATP (ELISA), JAK1
T1 construct: purchased Carna Biosciences, Inc
How it was run: (§1)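 Kinase reactions ran on streptavidin-coated plates in 15 mM Tris-HCl pH 7.5, 0.01% Tween-20, 1 mM DTT, 30 °C for 1 h. Enzyme was prediluted to 7.5 nM (JAK1) or 0.75 nM (JAK2, JAK3) before addition. Phosphotyrosine was detected with HRP anti-pTyr antibody and TMB at A450.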

JAK2 = target: T2, JAK2 (Homo sapiens, UniProt O60674); assay: JAK tyrosine kinase inhibitory activity in the presence of 1 mM ATP (ELISA), JAK2
T2 construct: purchased Carna Biosciences, Inc
T2 sequence (O60674 whole entry): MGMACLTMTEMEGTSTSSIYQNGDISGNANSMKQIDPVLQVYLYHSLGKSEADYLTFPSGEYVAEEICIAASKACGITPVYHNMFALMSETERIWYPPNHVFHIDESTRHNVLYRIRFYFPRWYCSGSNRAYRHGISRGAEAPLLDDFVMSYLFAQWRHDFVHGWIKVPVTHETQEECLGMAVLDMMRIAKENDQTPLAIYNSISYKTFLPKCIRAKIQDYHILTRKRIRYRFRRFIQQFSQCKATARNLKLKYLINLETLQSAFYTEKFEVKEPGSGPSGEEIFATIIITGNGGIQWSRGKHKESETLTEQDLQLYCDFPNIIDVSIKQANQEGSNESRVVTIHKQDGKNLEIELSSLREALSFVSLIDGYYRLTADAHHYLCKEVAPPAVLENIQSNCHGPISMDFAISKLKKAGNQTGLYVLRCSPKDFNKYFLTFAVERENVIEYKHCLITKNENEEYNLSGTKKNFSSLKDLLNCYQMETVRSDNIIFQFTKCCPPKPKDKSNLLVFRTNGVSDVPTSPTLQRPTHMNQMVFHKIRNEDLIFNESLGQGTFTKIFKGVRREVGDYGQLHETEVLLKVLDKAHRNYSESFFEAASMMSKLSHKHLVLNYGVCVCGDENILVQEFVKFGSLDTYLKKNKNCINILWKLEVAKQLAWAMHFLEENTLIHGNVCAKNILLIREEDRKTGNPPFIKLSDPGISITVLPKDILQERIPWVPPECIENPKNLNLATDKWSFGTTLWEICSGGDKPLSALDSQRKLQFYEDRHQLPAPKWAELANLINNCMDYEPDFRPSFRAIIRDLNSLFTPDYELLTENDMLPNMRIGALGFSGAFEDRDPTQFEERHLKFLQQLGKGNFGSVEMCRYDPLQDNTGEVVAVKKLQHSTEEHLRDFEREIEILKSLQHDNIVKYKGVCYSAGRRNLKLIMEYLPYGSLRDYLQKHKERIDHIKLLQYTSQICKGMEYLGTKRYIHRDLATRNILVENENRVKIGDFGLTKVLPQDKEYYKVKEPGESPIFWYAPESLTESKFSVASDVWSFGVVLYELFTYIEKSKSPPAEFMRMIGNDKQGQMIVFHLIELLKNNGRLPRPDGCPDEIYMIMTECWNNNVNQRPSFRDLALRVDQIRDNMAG
How it was run: as §1

JAK3 = target: T3, JAK3 (Homo sapiens, UniProt P52333); assay: JAK tyrosine kinase inhibitory activity in the presence of 1 mM ATP (ELISA), JAK3
T3 construct: purchased Carna Biosciences, Inc
T3 sequence (P52333 1-1124): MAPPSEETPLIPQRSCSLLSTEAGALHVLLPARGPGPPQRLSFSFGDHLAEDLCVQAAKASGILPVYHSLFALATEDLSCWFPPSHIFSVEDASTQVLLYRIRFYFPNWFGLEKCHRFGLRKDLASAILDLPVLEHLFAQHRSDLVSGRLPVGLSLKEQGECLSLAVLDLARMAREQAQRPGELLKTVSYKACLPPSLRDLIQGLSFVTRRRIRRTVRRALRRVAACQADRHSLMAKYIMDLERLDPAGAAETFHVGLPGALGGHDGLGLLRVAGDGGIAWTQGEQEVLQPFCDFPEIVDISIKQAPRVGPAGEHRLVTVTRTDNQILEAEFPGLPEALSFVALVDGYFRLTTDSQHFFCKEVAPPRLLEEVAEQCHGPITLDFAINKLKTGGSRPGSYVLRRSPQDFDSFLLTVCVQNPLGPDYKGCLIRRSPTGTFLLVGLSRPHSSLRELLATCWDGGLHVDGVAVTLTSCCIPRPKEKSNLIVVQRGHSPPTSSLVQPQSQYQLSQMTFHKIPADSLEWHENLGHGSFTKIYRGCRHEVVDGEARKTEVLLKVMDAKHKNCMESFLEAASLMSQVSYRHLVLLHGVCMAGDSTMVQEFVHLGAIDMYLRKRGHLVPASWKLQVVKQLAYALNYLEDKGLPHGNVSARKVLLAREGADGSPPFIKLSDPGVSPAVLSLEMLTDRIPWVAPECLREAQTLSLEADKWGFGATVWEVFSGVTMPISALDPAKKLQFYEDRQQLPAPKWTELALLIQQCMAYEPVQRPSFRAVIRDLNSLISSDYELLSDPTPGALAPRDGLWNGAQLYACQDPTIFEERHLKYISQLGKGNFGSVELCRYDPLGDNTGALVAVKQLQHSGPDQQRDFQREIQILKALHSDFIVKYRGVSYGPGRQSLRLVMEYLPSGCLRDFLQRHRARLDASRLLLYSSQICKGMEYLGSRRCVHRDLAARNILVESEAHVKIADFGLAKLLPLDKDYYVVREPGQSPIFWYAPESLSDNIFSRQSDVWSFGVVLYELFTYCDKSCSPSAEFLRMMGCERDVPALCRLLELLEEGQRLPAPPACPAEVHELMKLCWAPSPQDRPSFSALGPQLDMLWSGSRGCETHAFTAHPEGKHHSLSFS
How it was run: as §1

T1 sequence (P23458 whole entry): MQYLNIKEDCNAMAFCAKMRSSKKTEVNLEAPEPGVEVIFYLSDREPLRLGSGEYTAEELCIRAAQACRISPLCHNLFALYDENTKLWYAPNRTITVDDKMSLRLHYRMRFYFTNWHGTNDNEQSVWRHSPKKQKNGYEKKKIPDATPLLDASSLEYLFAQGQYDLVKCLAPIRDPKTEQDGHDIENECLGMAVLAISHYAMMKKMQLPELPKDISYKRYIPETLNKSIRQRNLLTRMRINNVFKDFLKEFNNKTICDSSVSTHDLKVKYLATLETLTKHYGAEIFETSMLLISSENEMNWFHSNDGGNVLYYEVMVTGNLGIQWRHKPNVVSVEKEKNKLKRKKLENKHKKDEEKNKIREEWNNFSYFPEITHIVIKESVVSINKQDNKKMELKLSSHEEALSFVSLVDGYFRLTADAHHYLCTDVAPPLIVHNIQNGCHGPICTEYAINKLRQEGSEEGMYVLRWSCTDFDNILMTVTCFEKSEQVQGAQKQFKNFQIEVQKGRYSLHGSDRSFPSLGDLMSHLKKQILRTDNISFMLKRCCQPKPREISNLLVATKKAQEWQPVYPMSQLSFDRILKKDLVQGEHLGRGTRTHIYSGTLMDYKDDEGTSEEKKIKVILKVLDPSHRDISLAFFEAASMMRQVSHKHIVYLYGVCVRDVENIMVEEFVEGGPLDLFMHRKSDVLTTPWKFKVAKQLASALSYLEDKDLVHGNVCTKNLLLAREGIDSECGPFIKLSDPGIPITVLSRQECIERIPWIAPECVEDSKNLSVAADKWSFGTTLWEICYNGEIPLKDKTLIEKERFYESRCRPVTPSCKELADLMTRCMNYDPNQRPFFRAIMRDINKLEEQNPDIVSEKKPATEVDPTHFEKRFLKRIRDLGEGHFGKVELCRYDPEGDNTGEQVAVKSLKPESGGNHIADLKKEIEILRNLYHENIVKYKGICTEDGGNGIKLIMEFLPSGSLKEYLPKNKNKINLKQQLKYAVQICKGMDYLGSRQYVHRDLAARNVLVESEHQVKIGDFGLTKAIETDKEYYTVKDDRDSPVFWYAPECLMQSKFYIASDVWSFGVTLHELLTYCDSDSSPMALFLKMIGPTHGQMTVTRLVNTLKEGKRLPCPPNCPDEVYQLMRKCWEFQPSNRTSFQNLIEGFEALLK

Structure (SMILES) | IC50 (JAK1) [nM] | IC50 (JAK2) [nM] | IC50 (JAK3) [nM]
COC(=O)NC1CCN(C(=O)c2cc(N[C@@H]3CCN(C(=O)C4CC4)C3)nc(-c3cnn4ccsc34)n2)CC1 [Example 205, Methyl 1-[6-[(3R)-1-(cyclopropanecarbonyl)pyrrolidin-3-yl]amino-2-(pyrazolo[5,1-b][1,3]thiazol-7-yl)pyrimidine-4-carbonyl]piperidin-4-ylcarbamate] | 850 | > 10000 | > 10000
CC(C)(C)CNc1cc(C(=O)N2CCC(NC(=O)C3CC3)CC2)nc(-c2cnn3ccsc23)n1 [Example 15, N-[1-({6-[(2,2-Dimethylpropyl)amino]-2-(pyrazolo[5,1-b][1,3]thiazol-7-yl)pyrimidin-4-yl}carbonyl)piperidin-4-yl]cyclopropanecarboxamide] | 110 | 2500 | 7200
COC(=O)NC1CCN(C(=O)c2cc(N[C@@H]3CCNC3)nc(-c3cnn4ccsc34)n2)CC1 [Example 150, Methyl [1-({2-(pyrazolo[5,1-b][1,3]thiazol-7-yl)-6-[(3R)-pyrrolidin-3-ylamino]pyrimidin-4-yl}carbonyl)piperidin-4-yl]carbamate dihydrochloride] | 5200 | > 10000 | > 10000
COC(=O)NC1CCN(C(=O)c2cc(NCC3CCN(C(=O)OC)CC3)nc(-c3cnn4ccsc34)n2)CC1 [Example 192, Methyl 4-([6-4-[(methoxycarbonyl)amino]piperidine-1-carbonyl-2-(pyrazolo[5,1-b][1,3]thiazol-7-yl)pyrimidin-4-yl]aminomethyl)piperidine-1-carboxylate] | 690 | > 10000 | > 10000
COC(=O)NC1CCN(C(=O)c2cc(NC(C)(C)CO)nc(-c3cnn4ccsc34)n2)CC1 [Example 61, Methyl [1-({6-[(l-hydroxy-2-methylpropan-2-yl)amino]-2-(pyrazolo[5,1-b][1, 3]thiazol-7-yl)pyrimidin-4-yl}carbonyl)piperidin-4-yl]carbamate] | 540 | > 10000 | 9400
COC(=O)NC1CCN(C(=O)c2cc(NCC(C)(C)CC3CC3)nc(-c3cnn4ccsc34)n2)CC1 [Example 174, Methyl (1-6-[(3-cyclopropyl-2,2-dimethylpropyl)amino]-2-(pyrazolo[5,1-b][1,3]thiazol-7-yl)pyrimidine-4-carbonylpiperidin-4-yl)carbamate] | 300 | > 10000 | 5600
C[C@@H](Nc1cc(C(=O)N2CCC(NC(=O)C3CC3)CC2)nc(-c2cnn3ccsc23)n1)C1CC1 [Example 46, N-(1-{[6-{[(1R)-1-Cyclopropylethyl]amino}-2-(pyrazolo[5,1-b][1,3]thiazol-7-yl)pyrimidin-4-yl]carbonyl}piperidin-4-yl)cyclopropanecarboxamide] | 170 | 1600 | 7200
CCOc1c(N[C@H](C)C(C)(C)C)nc(-c2cnn3ccsc23)nc1C(=O)N1CCC(NC(=O)OC)CC1 [Example 155, Methyl (1-{[6-{[(2R)-3,3-dimethylbutan-2-yl]amino}-5-ethoxy-2-(pyrazolo[5,1 b][1,3]thiazol 7-yl)pyrimidin-4-yl]carbonyl}piperidin-4-yl)carbamate] | 24 | 4600 | 1400
COC(=O)NC1CCN(C(=O)c2cc(NC3CCCCC3)nc(-c3cnn4ccsc34)n2)CC1 [Example 180, Methyl 1-[6-(cyclohexylamino)-2-(pyrazolo[5,1-b][1,3]thiazol-7-yl)pyrimidine-4-carbonyl]piperidin-4-ylcarbamate] | 560 | > 10000 | > 10000
C[C@@H](Nc1cc(C(=O)N2CCC(NC(=O)c3ccccc3)CC2)nc(-c2cnn3ccsc23)n1)C(C)(C)C [Example 183, N-1-[6-[(2R)-3,3-dimethylbutan-2-yl]amino-2-(pyrazolo[5,1-b][1,3]thiazol-7-yl)pyrimidine-4-carbonyl]piperidin-4-ylbenzamide] | 87 | > 10000 | 1200
O=C(NC1CCN(C(=O)c2cc(OCC3CC3)nc(-c3cnn4ccsc34)n2)CC1)C1CC1 [Example 43, N-(1-{[6-(Cyclopropylmethoxy)-2-(pyrazolo[5,1-b][1,3]thiazol-7-yl)pyrimidin-4-yl]carbonyl}piperidin-4-yl)cyclopropanecarboxamide] | 130 | > 10000 | > 10000
O=C(NC1CCN(C(=O)c2cc(NCC3(COC(F)F)CCOCC3)nc(-c3cnn4ccsc34)n2)CC1)C1CC1 [Example 11, N-[1-({6-[({4-[(Difluoromethoxy)methyl]tetrahydro-2H-pyran-4-yl}methyl)amino]-2-(pyrazolo[5,1-b][1,3]thiazol-7-yl)pyrimidin-4-yl}carbonyl)piperidin-4-yl]cyclopropanecarboxamide] | 21 | 2500 | 4800
CC(C)OC(=O)NC1CCN(C(=O)c2cc(N[C@H](C)C(C)(C)C)nc(-c3cnn4ccsc34)n2)CC1 [Example 29, Propan-2-yl (1-{[6-{[(2R)-3,3-dimethylbutan-2-yl]amino}-2-(pyrazolo[5,1-b][1,3]thiazol-7-yl)pyrimidin-4-yl]carbonyl}piperidin-4-yl)carbamate] | 140 | 1200 | 3000
COC(=O)NC1CCN(C(=O)c2cc(NC(C)c3ccncc3)nc(-c3cnn4ccsc34)n2)CC1 (stereo not drawn) [Example 162, Methyl 1-[2-(pyrazolo[5,1 b][1,3]thiazol-7-yl)-6-[1-(pyridin-4-yl)ethyl]aminopyrimidine-4-carbonyl]piperidin-4-ylcarbamate] | 1100 | > 10000 | > 10000
COC(=O)NC1CCN(C(=O)c2cc(N[C@@H]3CCN(C)C3)nc(-c3cnn4ccsc34)n2)CC1 [Example 151, Methyl (1-{[6-{[(3R)-1-methylpyrrolidin-3-yl]amino}-2-(pyrazolo[5,1-b][1,3]thiazol-7-yl)pyrimidin-4-yl]carbonyl}piperidin-4-yl)carbamate] | 2600 | > 10000 | > 10000
CCC(C)(C)Nc1cc(C(=O)N2CCC(NC(=O)OC)CC2)nc(-c2cnn3ccsc23)n1 [Example 80, Methyl [1-({6-[(2-methylbutan-2-yl)amino]-2-(pyrazolo[5,1-b][1,3]thiazol-7-yl)pyrimidin-4-yl}carbonyl)piperidin-4-yl]carbamate] | 110 | 820 | 2300
COC(=O)NC1CCN(C(=O)c2cc(NC3(C#N)CC3)nc(-c3cnn4ccsc34)n2)CC1 [Example 144, Methyl [1-({6-[(1-cyanocyclopropyl)amino]-2-(pyrazolo[5,1-b][1,3]thiazol-7-yl)pyrimidin-4-yl}carbonyl)piperidin-4-yl]carbamate] | 480 | > 10000 | 6600
COC(=O)NC1CCN(C(=O)c2cc(N[C@H](C)C(C)(C)C)nc(-c3cnn4ccsc34)n2)CC1 [Example 39, Methyl (1-{[6-{[(2R)-3,3-dimethylbutan-2-yl]amino}-2-(pyrazolo[5,1-b][1,3]thiazol-7-yl)pyrimidin-4-yl]carbonyl}piperidin-4-yl)carbamate] | 140 | 1300 | 2900
